Test results: PubChem BioAssay (NCI)
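Results reflect a 48-hour exposure of cells in 96-well plates to compound at five concentrations. GI50: concentration for 50% inhibition of growth. Definition used: TGI = concentration required for complete inhibition of growth.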

How the values were obtained:
Assay in all cases: NCI-60 cell line screen, 48 h
[1] = system: OVCAR-8 ovarian
[2] = system: MALME-3M melanoma
[3] = system: SK-MEL-5 melanoma
[4] = system: HT29 colon
[5] = system: SNB-75 CNS
[6] = system: M14 melanoma
[7] = system: HCT-15 colon
[8] = system: K-562 leukemia
[9] = system: COLO 205 colon
[10] = system: 786-0 renal

Compound | TGI [1] [µM] | TGI [2] [µM] | TGI [3] [µM] | TGI [4] [µM] | TGI [5] [µM] | TGI [6] [µM] | TGI [7] [µM] | TGI [8] [µM] | TGI [9] [µM] | TGI [10] [µM] | GI50 [1] [µM] | GI50 [2] [µM] | GI50 [3] [µM] | GI50 [4] [µM] | GI50 [5] [µM] | GI50 [6] [µM] | GI50 [7] [µM] | GI50 [8] [µM] | GI50 [9] [µM] | GI50 [10] [µM]
CCCC(O)c1cn(-c2cccc(S(=O)(=O)O)c2)nn1 (stereo not given) | > 100 | > 100 | > 100 | > 100 | > 100 | > 100 | > 100 | > 100 | > 100 | > 100 | – | – | – | – | – | – | – | – | – | –
COc1ccc(Nc2ncnc3ccc(-c4cncc(NS(C)(=O)=O)c4)cc23)cc1Cl | 16.5 | 11.2 | 3.21 | 6.93 | 6.37 | 13.6 | 14.1 | 18.7 | 4.47 | 13 | 3.62 | 1.55 | 1.61 | 2.07 | 0.352 | 2.81 | 3.6 | 3.2 | 1.8 | 2.99
